Some test systems named below: A549; SN12C; A498; HCT-116; Malme-3M; RXF 393; SK-OV-3; SW-620; SK-MEL-2; SF-539; OVCAR-3; K562; SF-268; OVCAR-8; HT-29; MOLT-4; HCT-15.
Common to all, as to test: NCI-60 cell line screen, 48 h

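In this assay, cells in 96-well plates receive the compound at five concentrations for 48 hours. Endpoints are linearly interpolated between the surrounding concentrations. The concentration for 50% growth inhibition is given as GI50.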 Active and inactive are the calls of the source. Rule as the data show it: active = GI50 up to about 1.1 µM and inactive = higher. Bounds are passed on as bounds.

Take `CCOC(=O)N1C2C=C(C)C(C3C(C)C(=O)N31)N(C(=O)c1ccccc1)O2` (stereo unspecified): the GI50 with A549, with SN12C, with A498, in the test with HCT-116, with Malme-3M and in the test on RXF 393 was > 100 µM (inactive) in each case. For the same compound, the GI50 in the test on SK-OV-3, in the test on SW-620, with SK-MEL-2, with SF-539, in the test on OVCAR-3 and with K562 was > 100 µM (inactive) in each case. In addition, the GI50 in the test with SF-268 was > 100 µM (inactive); in the test with OVCAR-8, > 100 µM (inactive); in the test with HT-29, > 100 µM (inactive); in the test on MOLT-4, > 100 µM (inactive); in the test with HCT-15, above 100 µM.
On to `COC(=O)Cc1nc2ccccc2o1`, for which the GI50 was 74.6 µM (inactive) in the test on A549; > 100 µM (inactive) in the test with SN12C; > 100 µM (inactive) with A498; 91.2 µM (inactive) in the test on HCT-116; > 100 µM (inactive) with Malme-3M; > 100 µM (inactive) in the test with RXF 393. For the same compound, the GI50 was > 100 µM (inactive) in the test on SK-OV-3; 95.1 µM (inactive) in the test with SW-620; 65.8 µM (inactive) in the test with SK-MEL-2; 72.3 µM (inactive) in the test with SF-539; 69 µM (inactive) in the test on OVCAR-3; 32.4 µM (inactive) in the test with K562. Also, the GI50 in the test on SF-268 was > 100 µM (inactive); in the test on OVCAR-8, 55.5 µM (inactive); in the test with HT-29, 90.8 µM (inactive); with MOLT-4, 67.9 µM (inactive); in the test on HCT-15, 33.3 µM.
With `c1ccc(C2OC3(CCC[C@H]4C[C@H]43)O[C@H]2c2ccccc2)cc1` (stereo partly specified), the GI50 in the test on A549 was 43.2 µM (inactive); in the test on SN12C, 34.4 µM (inactive); in the test with A498 it was > 100 µM (inactive); in the test on HCT-116 it was 31.8 µM (inactive); in the test with Malme-3M, 34.5 µM (inactive); with RXF 393, 38.5 µM (inactive). The GI50 in the test with SK-OV-3 is > 100 µM (inactive); in the test on SW-620, 31.2 µM (inactive); in the test with SK-MEL-2 it was 21.5 µM (inactive); with SF-539, > 100 µM (inactive); in the test with OVCAR-3 it was 37.4 µM (inactive); in the test with K562, 22.7 µM (inactive). Besides, the GI50 in the test with SF-268 is 73.8 µM (inactive); in the test on OVCAR-8, 48 µM (inactive); in the test on HT-29 it was 31.3 µM (inactive); in the test with MOLT-4, 25.8 µM (inactive); in the test on HCT-15, 33.8 µM.
Regarding `C[Si](C)(C)/C(Br)=C\CCN1C(=O)CCC1O` (stereo unspecified), the GI50 in the test on A549, in the test with SN12C, with A498, in the test on HCT-116, with Malme-3M and in the test on RXF 393 was > 100 µM (inactive) throughout. The GI50 with SK-OV-3, in the test on SW-620, in the test on SK-MEL-2, with SF-539, in the test on OVCAR-3 and with K562 was > 100 µM (inactive) in each case. For the same compound, the GI50 was > 100 µM (inactive) with SF-268; > 100 µM (inactive) with OVCAR-8; > 100 µM (inactive) in the test with HT-29; > 100 µM (inactive) in the test on MOLT-4; above 100 µM in the test on HCT-15.
As to `O=C(Nc1ccccc1Cl)c1ccc([N+](=O)[O-])cc1`, the GI50 with A549 was > 100 µM (inactive); in the test on SN12C, > 100 µM (inactive); in the test with A498, > 100 µM (inactive); in the test with Malme-3M it was > 100 µM (inactive); in the test with RXF 393, 33.3 µM (inactive); with SK-OV-3 it was > 100 µM (inactive). In addition, the GI50 in the test with SW-620 is > 100 µM (inactive); in the test with SK-MEL-2, > 100 µM (inactive); in the test on SF-539, 64.3 µM (inactive); with OVCAR-3 it was > 100 µM (inactive); in the test with K562, > 100 µM (inactive); in the test on SF-268, > 100 µM (inactive). Moreover, the GI50 is > 100 µM (inactive) in the test with OVCAR-8, > 100 µM (inactive) with HT-29, > 100 µM (inactive) in the test on MOLT-4 and above 100 µM with HCT-15.
For `C[n+]1c2ccccc2c(NC(CCC(N)=O)C(=O)O)c2ccccc21` (stereo unspecified), the GI50 in the test on A549, with SN12C, with A498, with HCT-116, in the test with Malme-3M and in the test on RXF 393 was > 100 µM (inactive) throughout. For the same compound, the GI50 in the test with SK-OV-3, in the test on SW-620, in the test on SK-MEL-2, with SF-539, with OVCAR-3 and with K562 was > 100 µM (inactive) in each case. Moreover, the GI50 with SF-268 is > 100 µM (inactive); with OVCAR-8 it was > 100 µM (inactive); in the test on HT-29 it was > 100 µM (inactive); in the test on MOLT-4, > 100 µM (inactive); with HCT-15, above 100 µM.
As to `Brc1cc2c(cc1Br)CN(c1ccccc1)C2`, the GI50 in the test on A549 is > 100 µM (inactive); in the test on SN12C, > 100 µM (inactive); in the test with A498 it was > 100 µM (inactive); in the test on HCT-116, > 100 µM (inactive); with Malme-3M, > 100 µM (inactive); with RXF 393 it was 99.8 µM (inactive). The GI50 in the test on SK-OV-3 is > 100 µM (inactive); in the test on SW-620, > 100 µM (inactive); with SK-MEL-2, > 100 µM (inactive); in the test on SF-539, > 100 µM (inactive); with OVCAR-3 it was > 100 µM (inactive); with K562, 80 µM (inactive). For the same compound, the GI50 with SF-268 is > 100 µM (inactive); in the test on OVCAR-8 it was > 100 µM (inactive); in the test with HT-29, > 100 µM (inactive); with MOLT-4, > 100 µM (inactive); in the test on HCT-15 it was 53.8 µM.
Regarding `CC(=O)OCC1OC(n2c(=O)n(-c3ccccc3)c(=O)c3cc(Br)cc(Br)c32)C(OC(C)=O)C(OC(C)=O)C1OC(C)=O` (stereo unspecified), the GI50 is > 100 µM (inactive) in the test with A549; > 100 µM (inactive) in the test on SN12C; > 100 µM (inactive) in the test on A498; > 100 µM (inactive) in the test on HCT-116; > 100 µM (inactive) in the test with Malme-3M; 48.1 µM (inactive) with RXF 393. In addition, the GI50 with SK-OV-3, in the test with SW-620, in the test on SK-MEL-2, in the test on SF-539, in the test on OVCAR-3 and with K562 was > 100 µM (inactive) in each case. For the same compound, the GI50 is > 100 µM (inactive) in the test on SF-268; > 100 µM (inactive) with OVCAR-8; > 100 µM (inactive) in the test with HT-29; > 100 µM (inactive) in the test on MOLT-4; above 100 µM in the test on HCT-15.
With `Cc1ccccc1C1OC(=O)c2ccc3ccccc3c21` (stereo unspecified), the GI50 is 5.48 µM (inactive) in the test with A549; 5.47 µM (inactive) with SN12C; 2.36 µM (inactive) in the test on A498; 2.52 µM (inactive) in the test with HCT-116; 5.56 µM (inactive) with Malme-3M; 2.59 µM (inactive) in the test with RXF 393. Also, the GI50 is 2.52 µM (inactive) with SK-OV-3; 4.52 µM (inactive) in the test on SW-620; 2.25 µM (inactive) in the test with SK-MEL-2; 3.27 µM (inactive) with SF-539; 3.65 µM (inactive) with OVCAR-3; 3.07 µM (inactive) in the test with K562. Further, the GI50 with SF-268 was 6.97 µM (inactive); in the test with OVCAR-8, 3.12 µM (inactive); with HT-29, 4.22 µM (inactive); with MOLT-4, 2.23 µM (inactive); with HCT-15, 2.93 µM.
With `CSc1ccc(N2C(=O)C3c4[nH]c5ccccc5c4C4CCC(C(C)(C)C)CC4C3C2=O)cc1` (stereo unspecified), the GI50 was 15.3 µM (inactive) with A549; 16.1 µM (inactive) with SN12C; 17.8 µM (inactive) in the test with A498; 5.24 µM (inactive) in the test with HCT-116; 12.3 µM (inactive) with Malme-3M; 20.3 µM (inactive) in the test with RXF 393. In addition, the GI50 with SK-OV-3 was 16.6 µM (inactive); in the test on SW-620, 21.3 µM (inactive); in the test on SK-MEL-2 it was 17.6 µM (inactive); in the test with SF-539, 18.3 µM (inactive); in the test with OVCAR-3 it was 41.2 µM (inactive); in the test with K562 it was 15.9 µM (inactive). Also, the GI50 is 12.4 µM (inactive) with SF-268; 12.1 µM (inactive) in the test with OVCAR-8; 21.8 µM (inactive) with HT-29; 15.4 µM (inactive) with MOLT-4; 66.2 µM in the test on HCT-15.
As to `CC1C=CC(O)[C@]2(CO)CC3(CCC12)OCCO3` (stereo partly specified), the GI50 with A549, in the test on SN12C, with A498, in the test on HCT-116, in the test with Malme-3M and in the test on RXF 393 was > 100 µM (inactive) throughout. Also, the GI50 in the test on SK-OV-3, in the test with SW-620, in the test with SK-MEL-2, in the test on SF-539, with OVCAR-3 and in the test with K562 was > 100 µM (inactive) throughout. Further, the GI50 with SF-268, with OVCAR-8, in the test with HT-29 and in the test on MOLT-4 was > 100 µM (inactive) throughout.
Turning to `Cc1ccc(Nc2cccc3c2C(=O)c2cccc(Nc4ccc(C)cc4S(=O)(=O)O)c2C3=O)c(S(=O)(=O)O)c1`, the GI50 in the test on A549, with SN12C, with A498, in the test with HCT-116, with Malme-3M and in the test with RXF 393 was > 100 µM (inactive) throughout. In addition, the GI50 in the test with SK-OV-3, in the test on SW-620, in the test with SK-MEL-2, with SF-539, in the test on OVCAR-3 and in the test on K562 was > 100 µM (inactive) in each case. Moreover, the GI50 in the test with SF-268 is > 100 µM (inactive); in the test with OVCAR-8 it was > 100 µM (inactive); in the test with MOLT-4, > 100 µM (inactive); in the test on HCT-15, above 100 µM.

The values are drawn from ChEMBL document CHEMBL1201862, “PubChem BioAssay data set” (2004).
